{"source": "patent US20070149483A1", "about": "“Methods and compounds for modulating triglyceride and vldl secretion” (priority 2003, published 2007)", "assay_type_in_all_cases": "cell-based, rat", "key": {"[1]": {"test_system": "McA-RH7777 cells stably expressing human apoB100", "test": "Competitive ELISA of apoB100 protein in medium", "conditions": "after 16-h incubation, n=3", "protocol": "(§1) Cell Culture and Fatty Acid Treatments—Transfected McA-RH7777 cells stably expressing human apoB100 (McLeod et al., 1994, J. Biol. Chem. 269, 2852-2862) were cultured in Dulbecco's modified Eagle's medium (DMEM) containing 10% fetal bovine serum (FBS), 10% horse serum and 200 μg/ml G418. Routinely, the cells were incubated with 0.4 mM fatty acids for 16-18 h in the presence of 20% FBS prior to experiments.\nCompetitive Enzyme Linked Immunosorbent Assay (ELISA)—The ELISA plates were coated with human LDL (1 mg/ml in PBS, 16 h, 4° C.), blocked with skim milk (5% in PBS, 2 h, 37° C.), and washed three times with PBS containing 0.02% Tween-20. The plates were incubated with apoB monoclonal antibody 1D1 (1:64,000, 16 h, 4° C.) in the presence of serial diluted concentrations of human LDL or medium samples. The plates were washed and incubated with horseradish peroxidase-linked anti-mouse IgG antibody (1:10,000, 2 h, 37° C.), followed by addition of the liquid substrate system for ELISA (3,3′,5,5′-tetramethyl-benzidine). The reaction was quantified colorimetrically by spectrophotometer reading at OD665."}, "[2]": {"test_system": "McA-RH7777 cells stably expressing human apoB100", "test": "Synthesis and secretion of [3H]glycerol-labelled TG and PC", "protocol": "as §1\nOther Assays—The TG transfer activity of MTP was determined according to published method (Wetterau et al., 1992, Science 258, 999-1001) with modifications (Wang et al., 1999). The phosphatidate phosphohydrolase activity was determined by an established method (Jamal et al., 1991, J. Biol. Chem. 266, 2988-2996). Lipid extraction and analysis by TLC was performed as previously described (Tran et al., 2000). Protein was determined using the BCA™ protein assay kit (Pierce)."}, "[3]": {"test_system": "McA-RH7777 cells stably expressing human apoB100", "test": "Pulse-chase (1 h pulse, up to 3 h chase) of apoB100 and apoA-I secretion efficiency", "protocol": "The cells were then incubated with chase medium for 15, 30 and 45 min. At the end of each chase time, the medium was collected and subjected to cumulative rate flotation centrifugation (Wang et al., 1999) to resolve apoB100-VLDL1 (Sf>100) and apoB100-VLDL2 (Sf 20-100) from other lipoproteins (i.e. IDL, LDL and HDL). The ^35S-apoB100 in each fraction was recovered by immunoprecipitation. Also, at the end of each chase time, the radiolabeled cells were harvested in 2 ml of ice-cold homogenization buffer (10 mM Tris-HCl, pH 7.4, 250 mM sucrose, 5 mM EDTA, and serine/cysteine protease inhibitor mixture), mixed with two 100-mm dishes of unlabeled cells, homogenized by passing ten times through a ball-bearing homogenizer, and subjected to subcellular fractionation and carbonate-treatment as described below.\nOleate and EPA were present in both pulse and chase media. The [^35S]-apoB100 from total cell lysates (FIG. 2A) or conditioned media (FIG. 2B) was immunoprecipitated, resolved by SDS-PAGE, and visualized by fluorography. Radioactivity associated with [^35S]-apoB100 was quantified. As shown in the top panels of FIG. 2A to 2B, the data is expressed as absolute amount of radioactivity associated with [^35S]-apoB100 at the end of 1-h pulse. As shown in the […] panels of FIG. 2A to 2B, the data is expressed as percent of the initial counts associated with ^35S-apoB100 at the end of 1-h pulse. […] The experiments were repeated and similar results were obtained.\nIt has been shown previously that VLDL, particles carry >80% of total TG but <10% of total apoB100 secreted from oleate-treated McA-RH777 cells (Wang et al., 1999, J. Biol. Chem. 274: 27793-27800). Thus the possibility was considered that the above pulse (30-min)-chase(60 min) experiment might fail to detect decreased secretion and increased post-translational degradation of apoB100 because n-3 fatty acid treatment was reported to selectively decrease apoB100 in VLDL fractions (Fisher and Ginsberg, 2002, J. Biol. Chem. 277: 17377-17380). In the next set of experiments, the pulse-labelling period was extended to 1 h to maximize [^35S]-labelling of apoB100 and to allow examination of potential posttranslational degradation. […] The high labelling of apoB100 at the end of 1-h pulse may reflect increased intracellular accumulation of newly synthesized apoB100 and/or impaired secretion. […] The secretion efficiency, which measures the proportion of total metabolically labelled [^35S]-apoB100 secreted at the end of chase was decreased from 60% to 40% in EPA-treated cells compared to OA-treated cells (FIG. 2B, bottom). […]"}, "[4]": {"test_system": "McA-RH7777 cells stably expressing human apoB100", "test": "Tandem mass spectrometry of PC and PE in membranes of subcellular organelles", "conditions": "for PC content, Total / PC content, membranes of ER / PC content, membranes of cis/medial Golgi / PC content, membranes of distal Golgi / PE content, Total / PE content, membranes of ER / PE content, membranes of cis/medial Golgi / PE content, membranes of distal Golgi: control cells set as 100", "source_text": "Subcellular Fractionation—Three subcellular fractions (i.e., ER, fractions 1 through 3; cis/medial Golgi, fractions 4 through 8; distal Golgi, fractions 9 through 15) were obtained from the cell lysates using Nycodenz gradient centrifugation (Hammond and Helenius, 1994, J. Cell Biol. 126, 41-52; Rickwood et al., 1982, Anal. Biochem. 123, 23-31) of the post-nuclear supernatant as previously described (Tran et al., 2002). […] The membrane and lumen preparations from ER (Nycodenz fractions 1 through 3), cis/medial Golgi (fractions 4 through 8), and distal Golgi (fractions 9 through 15) were derived from cells pooled from eight 100-mm dishes. Lipids were extracted from the samples with chloroform/methanol/acetic acid/saturated NaCl/H2O (4:2:0.1:1:2, by volume) in the presence of 230 pmol dimirystoyl (14:0-14:0) PC and 110 pmol dipalmitoyl (16:0-16:0) PE as internal standards. Aliquots of lipid extracts were applied to tandem mass spectrometry, and the molecular species (i.e. fatty acid composition) of PC and PE was determined by daughter ion analysis in the negative ion mode as previously described (Tran et al., 2002; DeLong et al., 1999, J. Biol. Chem. 274, 29683-29688). The integrated area under the peak of each molecular species was quantified by comparing with those of internal standards."}, "[5]": {"conditions": "end of 2-h labelling with [^3H]glycerol, means ± SD of triplicate"}}, "note": "Marks after values point to notes of the source that are not given here."}
{"smiles": "CC/C=C\\C/C=C\\C/C=C\\C/C=C\\C/C=C\\CCCC(=O)O", "note": "[EPA, eicosapentaenoic acid]", "values": [{"measurement": "amount of apoB100 protein accumulated in the medium", "setting": "[1]", "result": "2.5 ± 0.43", "unit": "µg/mL"}, {"measurement": "[^3H]PC Cell", "setting": "[2]; [5]", "result": "15.80 ± 0.44", "unit": "cpm × 10^−3/dish"}, {"measurement": "[^3H]PC Medium", "setting": "[2]; [5]", "result": "3.86 ± 0.57", "unit": "cpm × 10^−3/dish"}, {"measurement": "[^3H]TG Cell", "setting": "[2]; [5]", "result": "40.84 ± 0.70^b cpm × 10^−3/dish"}, {"measurement": "[^3H]TG Medium", "setting": "[2]; [5]", "result": "7.18 ± 0.96^b cpm × 10^−3/dish"}, {"measurement": "reduction in secretion of [^3H]glycerol-labelled TG", "setting": "[2]; vs oleate-treated cells", "result": 50, "unit": "%"}, {"measurement": "[^35S] incorporated into apoB100 at the end of 1-h pulse, greater than in oleate-treated cells", "setting": "[3]", "result": "~40", "unit": "%"}, {"measurement": "amount of [^35S] incorporated into apoB100 at the end of 1-h pulse", "setting": "[3]", "result": "9.43×10^4 cpm/dish"}, {"measurement": "secretion efficiency (proportion of total metabolically labelled [^35S]-apoB100 secreted at the end of chase)", "setting": "[3]; 3-h chase", "result": 40, "unit": "%"}, {"measurement": "PC content, Total", "setting": "[4]", "result": "(92)* % of control"}, {"measurement": "PC content, membranes of ER", "setting": "[4]", "result": "(108)* % of control"}, {"measurement": "PC content, membranes of cis/medial Golgi", "setting": "[4]", "result": "(70)* % of control"}, {"measurement": "PC content, membranes of distal Golgi", "setting": "[4]", "result": "(94)* % of control"}, {"measurement": "PE content, Total", "setting": "[4]", "result": "(185)* % of control"}, {"measurement": "PE content, membranes of ER", "setting": "[4]", "result": "(216) % of control"}, {"measurement": "PE content, membranes of cis/medial Golgi", "setting": "[4]", "result": "(127) % of control"}, {"measurement": "PE content, membranes of distal Golgi", "setting": "[4]", "result": "(270)* % of control"}, {"measurement": "increase in PE mass in the ER", "setting": "[4]; vs untreated control", "result": 116, "unit": "%"}, {"measurement": "increase in PE mass in the distal Golgi", "setting": "[4]; vs untreated control", "result": 170, "unit": "%"}, {"measurement": "increase in total PE mass", "setting": "[4]; vs untreated control", "result": 85, "unit": "%"}]}
{"smiles": "CCCCCCCC/C=C\\CCCCCCCC(=O)O", "note": "[Oleate, oleic acid]", "values": [{"measurement": "amount of apoB100 protein accumulated in the medium", "setting": "[1]", "result": "2.74 ± 0.48", "unit": "µg/mL"}, {"measurement": "[^3H]PC Cell", "setting": "[2]; [5]", "result": "15.00 ± 0.23", "unit": "cpm × 10^−3/dish"}, {"measurement": "[^3H]PC Medium", "setting": "[2]; [5]", "result": "4.10 ± 0.12", "unit": "cpm × 10^−3/dish"}, {"measurement": "[^3H]TG Medium", "setting": "[2]; [5]", "result": "12.87 ± 1.59", "unit": "cpm × 10^−3/dish"}, {"measurement": "amount of [^35S] incorporated into apoB100 at the end of 1-h pulse", "setting": "[3]", "result": "6.40×10^4 cpm/dish"}, {"measurement": "PC content, Total", "setting": "[4]", "result": "(156) % of control"}, {"measurement": "PC content, membranes of ER", "setting": "[4]", "result": "(182) % of control"}, {"measurement": "PC content, membranes of cis/medial Golgi", "setting": "[4]", "result": "(107) % of control"}, {"measurement": "PC content, membranes of distal Golgi", "setting": "[4]", "result": "(173) % of control"}, {"measurement": "PE content, Total", "setting": "[4]", "result": "(129) % of control"}, {"measurement": "PE content, membranes of ER", "setting": "[4]", "result": "(172) % of control"}, {"measurement": "PE content, membranes of cis/medial Golgi", "setting": "[4]", "result": "(112) % of control"}, {"measurement": "PE content, membranes of distal Golgi", "setting": "[4]", "result": "(106) % of control"}, {"measurement": "increase in PC mass in the ER", "setting": "[4]; vs untreated control", "result": 82, "unit": "%"}, {"measurement": "increase in PC mass in the distal Golgi", "setting": "[4]; vs untreated control", "result": 73, "unit": "%"}, {"measurement": "increase in PE mass in the ER", "setting": "[4]; vs untreated control", "result": 72, "unit": "%"}, {"measurement": "increase in total PC mass associated with intracellular microsomes", "setting": "[4]; vs untreated control", "result": 56, "unit": "%"}, {"measurement": "increase in total PE mass", "setting": "[4]; vs untreated control", "result": 29, "unit": "%"}]}
